# Laboratory results as given in US9636299B2, “Method for treating diabetic retinopathy” (XAVIER UNIVERSITY OF LOUISIANA, priority 2012, dated 2017).
# Residues, ends and D or L forms follow the SMILES beside them.
# Columns and labels:
# [1] = Corneal permeability of topical 1% apoEdp eye drops in mice, UPLC-MS of pooled aqueous and vitreous humor; assay type: in vivo; parameters: key to Meas'd conc. / Total: *: No peak detected
# Protocol: The apoEdp peptide (SEQ ID NO:3) is rich in cationic amino acids, and the inventor postulated that it may cross the cornea into the anterior and posterior chambers of the eye. […] Thus, apoEdp can be used for non-invasive treatment of posterior eye diseases.
# A one percent (1%) solution comprising apoEdp in PBS was prepared. This solution was applied bilaterally via eyedropper to the eyes of mice (n=4). The mice were sacrificed at 0, 1, 2, or 3 hours after application of the solution, and the eyes were enucleated. The aqueous and vitreous humor from each eye was collected and pooled, mixed with 1 mL of 0.1% formic acid solution, and allowed to stand for 5 minutes. The samples were then filtered with a 0.2 μm filter and analyzed with the Acquity UPLC system (Waters Corp., Milford, Mass.) with mass spectrophotometric detection.
# Initially, the mass range for the peptide was scanned several peaks corresponding to different charged states of the peptide were found. These peaks included 484.9 m/z, 604.4 m/z, and 805.6 m/z. The 484.9 peak was used for the analysis because it was the strongest peak. For the UPLC analysis, a 2.1 mm×100 mm×1.7 μm BEH300 C4 column was used. A two-component mobile phase was used with component 1 (C1): 0.1% formic Acid, and Component 2 (C2): Acetonitrile with 0.1% formic acid. The flow rate was 0.2 mL/min and gradient elution was used with a linear gradient (see TABLE 2). Retention time for the peptide was 4.6 minutes.
# [2] = system: LRP-1; assay: LRP-1 expression in high sugar induced hRMECs (Western blot); assay type: cell-based, human; conditions: high sugar induced serum starved hRMECs, 1% apoEdp, 24 hours
# Protocol: Using an anti-LRP-1 antibody (human LRP-1; 1:1000, Santa Cruz Biotechnology, CA) and Western blot analysis, selective inhibition of LRP-1 by apoEdp treatment (24 hours) in serum starved hRMECs cells was shown.
# [3] = system: MMP2; assay: Laser photocoagulation-induced retinal injury in mice, MMP2 real-time RT-PCR; assay type: in vivo, mouse; conditions: apoEdp 40 mg/kg intraperitoneally once each day for 7 days, vs mice without apoEdp
# Protocol: (§1) Laser Photocoagulation-Induced Retinopathy. Female mice (C57BL/6J), aged 6-8 weeks, were used for retinal laser photocoagulation studies. The mice were treated and maintained in accordance with the ARVO Statement for the Use of Animals in Ophthalmic and Vision Research. The mice were anesthetized by intraperitoneal injection of a mixture of ketamine (100 mg/kg; Warner Lambert Co., Morris Plains, N.J.) and xylazine (10 mg/kg; Bayer AG, Leverkusen, Germany), and the pupils dilated with 2.5% tropicamide (Alcon, Fort Worth, Tex.). […]
# (§2) RNA Extraction, Reverse Transcription, & PCR. […] Gene expression was measured at RNA level per 100 ng of total RNA using one-step RT-PCR kit (Bio-Rad, Hercules, Calif.). Four host genes (mouse GAPDH, mouse MMP2, mouse HPSE-1 (heparanase-1), and mouse MMP9) were analyzed to confirm relative quantitative expression levels. The primer pairs used were specifically designed and synthesized by Qiagen GmbH, Hilden, Germany (Quantitech Primer assay kit, for each host gene, catalog numbers QT01658692, QT00088396, QT00009555, and QT00040040, respectively). One-step Real-time quantitative RT-PCR reactions were performed in a 50-μL volume containing a solution of 1× supermix (iQ SYBR Green; Bio-Rad, Hercules, Calif.), 1 μM mix of forward and reverse primers, and 5 μL total RNA. […] Relative quantitative expression levels were determined for each gene. […]
# [4] = system: heparanase; assay: Laser photocoagulation-induced retinal injury in mice, heparanase real-time RT-PCR; assay type: in vivo, mouse; conditions: apoEdp 40 mg/kg intraperitoneally once each day for 7 days, vs mice without apoEdp
# Protocol: as §1, §2
# [5] = system: VEGF-induced ocular angiogenesis; conditions: rabbit eye model, reference 17; cited from earlier work
# [6] = OD (right eye), 0 h after topical 1% apoEdp
# [7] = OD (right eye), 1 h after topical 1% apoEdp
# [8] = OD (right eye), 2 h after topical 1% apoEdp
# [9] = OD (right eye), 3 h after topical 1% apoEdp
# [10] = OS (left eye), 1 h after topical 1% apoEdp
# [11] = OS (left eye), 2 h after topical 1% apoEdp
# [12] = OS (left eye), 3 h after topical 1% apoEdp
smiles,measurement,setting,value
"CC(=O)N[C@@H](CC(C)C)C(=O)N[C@@H](CCCNC(=N)N)C(=O)N[C@@H](CCCCN)C(=O)N[C@@H](CC(C)C)C(=O)N[C@@H](CCCNC(=N)N)C(=O)N[C@@H](CCCCN)C(=O)N[C@@H](CCCNC(=N)N)C(=O)N[C@@H](CC(C)C)C(=O)N[C@@H](CC(C)C)C(=O)N[C@@H](CC(C)C)C(=O)N[C@@H](CCCNC(=N)N)C(=O)N[C@@H](CCCCN)C(=O)N[C@@H](CC(C)C)C(=O)N[C@@H](CCCNC(=N)N)C(=O)N[C@@H](CCCCN)C(=O)N[C@@H](CCCNC(=N)N)C(=O)N[C@@H](CC(C)C)C(=O)N[C@@H](CC(C)C)C(N)=O [apoEdp, Ac-LRKLRKRLLLRKLRKRLL-amide] (Ac-LRKLRKRLLLRKLRKRLL-NH2)",Meas'd conc.,[1]; [6],*
same,Total,[1]; [6],*
same,Meas'd conc.,[1]; [7],0.022 µg/mL
same,Total,[1]; [7],22.2 ng
same,Meas'd conc.,[1]; [8],0.006 µg/mL
same,Total,[1]; [8],5.9 ng
same,Meas'd conc.,[1]; [9],0.036 µg/mL
same,Total,[1]; [9],36.3 ng
same,Total,"[1]; OS (left eye), 0 h after topical 1% apoEdp",*
same,Meas'd conc.,"[1]; OS (left eye), 0 h after topical 1% apoEdp in PBS, pooled aqueous and vitreous humor",*
same,Meas'd conc.,[1]; [10],*
same,Total,[1]; [10],*
same,Meas'd conc.,[1]; [11],0.004 µg/mL
same,Total,[1]; [11],3.89 ng
same,Meas'd conc.,[1]; [12],0.058 µg/mL
same,Total,[1]; [12],58.08 ng
same,Detection of topically-applied apoEdp inside the eye (cornea penetration),[1]; topical 1% apoEdp,detected inside the eye in as little as one hour after application
same,Upregulation of LRP-1,[2],inhibiting the upregulation
same,Expression of MMP2 in retina,[3],dramatically reduced
same,Expression of heparanase in retina,[4],dramatically reduced
same,VEGF-induced ocular angiogenesis,[5],blocks
